The source of these data is article PMC11859928, “Design, Synthesis, and Antiproliferative Activity of Novel Indole/1,2,4-Triazole Hybrids as Tubulin Polymerization Inhibitors” (Pharmaceuticals, 2025).

The test system of one experiment is 786-0. Description: NCI one-dose assay. It is filed as cell-based, human. The conditions noted are these: Homo sapiens, 786-0, 786-0, Renal cancer, read-out: Cell growth inhibition %. On the procedure:
(§1) The National Cancer Institute (NCI), Bethesda, USA, selected the final compounds 6a–j and 7a–j for in vitro anticancer screening. An initial in vitro single-dose anticancer experiment was performed with the entire NCI 60 cell lines derived from nine tumor subpanel cancer cell lines. The results for each compound were illustrated as a mean graph showing the percentage growth of treated cells compared to untreated control cells (see Supplementary Materials).
(§2) The NCI anticancer screening process has been thoroughly detailed. The Drug Evaluation Branch of the National Cancer Institute in Bethesda, […], USA, established the procedure and conducted the anticancer assay on 60 human tumor cell lines from nine neoplastic cancers.

The test system of another experiment is A498. In words: NCI one-dose assay. The experiment is classed as cell-based, human. The conditions noted are these: Homo sapiens, A498, A498, Renal cancer, read-out: Cell growth inhibition %. On the procedure: as §1, §2
A further experiment has as its system HOP-92. In words: NCI one-dose assay. Particulars: Homo sapiens, HOP-92, HOP-92, Non-small cell lung cancer, read-out: Cell growth inhibition %. It is filed as cell-based, human. On the procedure:
as §1, §2

The next experiment relates to UO-31. Description: NCI one-dose assay. Particulars: Homo sapiens, UO-31, UO-31, Renal cancer, read-out: Cell growth inhibition %. It is filed as cell-based, human. On the procedure: as §1, §2
In a further experiment the test system is HOP-62. In words: NCI one-dose assay. The experiment is classed as cell-based. The conditions noted are these: Homo sapiens, HOP-62, Non-small cell lung cancer, read-out: Cell growth inhibition %.
The subject of the next experiment is NCI-H23. Description: NCI one-dose assay. It is filed as cell-based. The conditions noted are these: Homo sapiens, NCI-H23, Non-small cell lung cancer, read-out: Cell growth inhibition %.
Another experiment concerns COLO 205. In words: NCI one-dose assay. It is filed as cell-based. Particulars: Homo sapiens, COLO 205, Colon cancer, read-out: Cell growth inhibition %.
A further experiment deals with MOLT-4. Description: NCI one-dose assay. The experiment is classed as cell-based. The conditions noted are these: Homo sapiens, MOLT-4, Leukemia, read-out: Cell growth inhibition %.
For another experiment, the system named is HCT-15. Description: NCI one-dose assay. The experiment is classed as cell-based. The conditions noted are these: Homo sapiens, HCT-15, Colon cancer, read-out: Cell growth inhibition %.
The subject of a further experiment is DU-145. Description: NCI one-dose assay. It is filed as cell-based. Particulars: Homo sapiens, DU-145, Prostate cancer, read-out: Cell growth inhibition %.
Another experiment relates to EKVX. In words: NCI one-dose assay. It is filed as cell-based. The conditions noted are these: Homo sapiens, Non-small cell lung cancer, read-out: Cell growth inhibition %.
For the next experiment, the system named is SN12C. Description: NCI one-dose assay. It is filed as cell-based. The conditions noted are these: Homo sapiens, Renal cancer, read-out: Cell growth inhibition %.
In the next experiment the test system is NCI/ADR-RES. In words: NCI one-dose assay. It is filed as cell-based. The conditions noted are these: Homo sapiens, Ovarian cancer, read-out: Cell growth inhibition %.
The test system of the next experiment is OVCAR-5. Description: NCI one-dose assay. It is filed as cell-based. The conditions noted are these: Homo sapiens, OVCAR-5, Ovarian cancer, read-out: Cell growth inhibition %.
The subject of a further experiment is SF-268. In words: NCI one-dose assay. It is filed as cell-based. Particulars: Homo sapiens, SF-268, CNS cancer, read-out: Cell growth inhibition %.
The test system of a further experiment is PC-3. In words: NCI one-dose assay. The conditions noted are these: Homo sapiens, PC-3, Prostate cancer, read-out: Cell growth inhibition %. It is filed as cell-based.
A further experiment has as its system HCT-116. Description: NCI one-dose assay. The experiment is classed as cell-based. Particulars: Homo sapiens, HCT-116, Colon cancer, read-out: Cell growth inhibition %.
Another experiment concerns SW-620. In words: NCI one-dose assay. It is filed as cell-based. The conditions noted are these: Homo sapiens, SW-620, Colon cancer, read-out: Cell growth inhibition %.
Another experiment has as its system SNB-19. In words: NCI one-dose assay. It is filed as cell-based. The conditions noted are these: Homo sapiens, SNB-19, CNS cancer, read-out: Cell growth inhibition %.
In a further experiment the test system is OVCAR-3. Description: NCI one-dose assay. The experiment is classed as cell-based. The conditions noted are these: Homo sapiens, OVCAR-3, Ovarian cancer, read-out: Cell growth inhibition %.
The test system of another experiment is LOX IMVI. Description: NCI one-dose assay. It is filed as cell-based. The conditions noted are these: Homo sapiens, Melanoma, read-out: Cell growth inhibition %.
The subject of a further experiment is SK-MEL-2. Description: NCI one-dose assay. The experiment is classed as cell-based. Particulars: Homo sapiens, SK-MEL-2, Melanoma, read-out: Cell growth inhibition %.
For a further experiment, the system named is CCRF-CEM. Description: NCI one-dose assay. It is filed as cell-based. The conditions noted are these: Homo sapiens, Leukemia, read-out: Cell growth inhibition %.
The next experiment relates to RXF 393. In words: NCI one-dose assay. Particulars: Homo sapiens, RXF 393, Renal cancer, read-out: Cell growth inhibition %. It is filed as cell-based.
The test system of the next experiment is NCI 60 cell lines. Description: NCI one-dose assay, full panel. It is filed as cell-based, human. On the procedure:
as §1, §2

For the compound `O=C(CSc1nnc(-c2c[nH]c3ccccc23)n1-c1ccccc1)c1ccccc1` [Compound 6f, 2-((5-(1H-indol-3-yl)-4-phenyl-4H-1,2,4-triazol-3-yl)thio)-1-phenylethanone], the inhibition at 10 µM in the experiment on 786-0 was 70.4%; in the experiment with A498, -6.16%; in the experiment on HOP-92 it was 53%; in the experiment with UO-31 it was 44.5%; in the experiment on HOP-62, 76.6%; in the experiment on NCI-H23, 55.1%. The inhibition at 10 µM in the experiment with COLO 205 came to 6.63%; in the experiment on MOLT-4 it was 9.43%; in the experiment with HCT-15 it was 20.6%; in the experiment with DU-145, 14.3%; in the experiment with EKVX, 31.6%; in the experiment on SN12C, 55.3%. Also, the inhibition at 10 µM with NCI/ADR-RES stood at 85.2%; in the experiment on OVCAR-5, 11.4%; in the experiment on SF-268 it was 68.3%; in the experiment on PC-3, 34.2%; with HCT-116 it was 62%; in the experiment with SW-620, 23.9%. Also, the inhibition at 10 µM amounted to 80.8% with SNB-19; 39.2% in the experiment on OVCAR-3; 70.8% in the experiment with LOX IMVI; 8.14% in the experiment on SK-MEL-2; 8.65% in the experiment with CCRF-CEM.
Consider `COc1ccc(/C(CSc2nnc(-c3c[nH]c4ccccc34)n2-c2ccccc2)=N/O)cc1` [Compound 7g, (Z)-2-((5-(1H-Indol-3-yl)-4-phenyl-4H-1,2,4-triazol-3-yl)thio)-1-(4-methoxyphenyl) Ethanone Oxime], for which the inhibition at 10 µM is 40.3% in the experiment with 786-0; 30.2% in the experiment with A498; 71.8% in the experiment with HOP-92; 81.8% in the experiment with UO-31; 55% in the experiment with HOP-62; 58.4% in the experiment with NCI-H23. Also, the inhibition at 10 µM in the experiment on COLO 205 was determined as 63.7%; in the experiment with MOLT-4, 83.3%; in the experiment with HCT-15 it was 84.7%; with DU-145, 57%; in the experiment on EKVX it was 84.9%; in the experiment with SN12C, 54.2%. For the same compound, the inhibition at 10 µM came out at 61.8% in the experiment with NCI/ADR-RES; 45% with OVCAR-5; 51.5% in the experiment with SF-268; 76.9% in the experiment with PC-3; 71.9% with HCT-116; 60.6% with SW-620. In addition, the inhibition at 10 µM in the experiment with SNB-19 was 59.7%; in the experiment with OVCAR-3, 69.5%; in the experiment with LOX IMVI it was 178%; in the experiment with SK-MEL-2, 94.1%; in the experiment on CCRF-CEM it was 83.5%.
Regarding `O=C(CSc1nnc(-c2c[nH]c3ccccc23)n1-c1ccccc1)c1ccc(Br)cc1` [Compound 6i, 2-((5-(1H-Indol-3-yl)-4-phenyl-4H-1,2,4-triazol-3-yl)thio)-1-(4-bromophenyl) Ethenone], the inhibition at 10 µM with 786-0 turned out to be 17.6%; in the experiment on A498, 64%; with HOP-92, 71.9%; in the experiment on UO-31, 74%; in the experiment with HOP-62 it was 26.4%; in the experiment with NCI-H23, 46%. The inhibition at 10 µM in the experiment with COLO 205 stood at 86.5%; in the experiment on MOLT-4 it was 7.77%; with HCT-15, 56%; in the experiment on DU-145, 41.5%; in the experiment with EKVX, 89.2%; in the experiment with SN12C, 27.1%. The inhibition at 10 µM was determined as 100% with NCI/ADR-RES; 41.7% with OVCAR-5; 50.9% in the experiment with SF-268; 53.8% with PC-3; 45.7% in the experiment on HCT-116; 20.2% in the experiment with SW-620. The inhibition at 10 µM stood at 29.8% in the experiment with SNB-19; 57.5% in the experiment on OVCAR-3; 58.2% in the experiment with LOX IMVI; 119% with SK-MEL-2; 13.6% in the experiment with CCRF-CEM.
As for `C=CCn1c(SCC(=NO)c2ccc(OC)cc2)nnc1-c1c[nH]c2ccccc12` [Compound 7b, 2-((4-allyl-5-(1H-indol-3-yl)-4H-1,2,4-triazol-3-yl)thio)-1-(4-methoxyphenyl) Ethanone Oxime], the inhibition at 10 µM in the experiment on 786-0 is 0.73%; with HOP-92 it was 8.91%; in the experiment on UO-31, 19.2%; with HOP-62, 2%; in the experiment on NCI-H23, 4.86%; in the experiment on COLO 205 it was -11.9%. Besides, the inhibition at 10 µM in the experiment on MOLT-4 is 8.18%; in the experiment with HCT-15 it was 4.34%; in the experiment with RXF 393 it was -12.1%; with DU-145, -5.85%; in the experiment on EKVX, 7.49%; in the experiment on SN12C, 8.24%. Moreover, the inhibition at 10 µM with NCI/ADR-RES was -3.18%; with OVCAR-5, -4.1%; in the experiment with SF-268, -0.98%; with PC-3, 14.9%; with HCT-116 it was 23.6%; in the experiment on SW-620, -2.43%. Also, the inhibition at 10 µM in the experiment on SNB-19 was 1.65%; in the experiment with OVCAR-3, -9.23%; in the experiment with SK-MEL-2, -7.88%; in the experiment on CCRF-CEM, 8.83%. Further, the “anticancer activity (in words)” value in the experiment with NCI 60 cell lines (across all cell lines, 10 µM) was “minimal anticancer activity”.
Take `C=CCn1c(SC/C(=N\O)c2ccc(Br)cc2)nnc1-c1c[nH]c2ccccc12` [Compound 7d, (Z)-2-((4-allyl-5-(1H-indol-3-yl)-4H-1,2,4-triazol-3-yl)thio)-1-(4-bromophenyl) Ethanone Oxime]: the inhibition at 10 µM with 786-0 is 13.4%; in the experiment on HOP-92, 21%; in the experiment with UO-31, 38.3%; in the experiment with HOP-62 it was 0.14%; in the experiment with NCI-H23, 17.9%; in the experiment with COLO 205, 8.25%. Moreover, the inhibition at 10 µM worked out at 43.7% with MOLT-4; 26.9% in the experiment with HCT-15; 19.3% in the experiment with RXF 393; 6.21% in the experiment on DU-145; 25.8% in the experiment on EKVX; 16.3% with SN12C. Also, the inhibition at 10 µM worked out at 6.71% in the experiment with NCI/ADR-RES; 6.82% with OVCAR-5; 4.98% with SF-268; 31.6% in the experiment with PC-3; 47% in the experiment with HCT-116; 7.31% in the experiment with SW-620. Moreover, the inhibition at 10 µM is 8.36% in the experiment with SNB-19; -3.34% with OVCAR-3; 8.97% with SK-MEL-2; 26.7% in the experiment with CCRF-CEM; 34 to 47% with NCI 60 cell lines (Homo sapiens, 60 cell, eleven cell lines, read-out: growth inhibition percentage, range).
